# Measured values: US20240025884A1 (Dong-A ST Co., Ltd., priority 2022, published 2024)
# Target: GCN2 (Homo sapiens (Human), UniProt Q9P2K8)
# Assay: GCN2 Biochemical Assay (TR-FRET, GFP-eIF2S1 substrate phosphorylation)
# Conditions: read-out: IC50 (GCN2 Inhibitory Activity)
# In short: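 TR-FRET readout (Ex 340, Em 490/520 nm) after 2–3 h with Tb-labelled phospho-eIF2S1 antibody in stop mix, following a 70 min room-temperature kinase step. Reaction: in-house GCN2, GFP-eIF2S1, ATP, tRNA in Tris pH 7.5 (2× stocks 1.6 nM, 50 nM, 0.2 mM); compounds tested at 10 concentrations, with a phospho-substrate artifact counter-plate.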
# GCN2, sequence (Q9P2K8 whole entry): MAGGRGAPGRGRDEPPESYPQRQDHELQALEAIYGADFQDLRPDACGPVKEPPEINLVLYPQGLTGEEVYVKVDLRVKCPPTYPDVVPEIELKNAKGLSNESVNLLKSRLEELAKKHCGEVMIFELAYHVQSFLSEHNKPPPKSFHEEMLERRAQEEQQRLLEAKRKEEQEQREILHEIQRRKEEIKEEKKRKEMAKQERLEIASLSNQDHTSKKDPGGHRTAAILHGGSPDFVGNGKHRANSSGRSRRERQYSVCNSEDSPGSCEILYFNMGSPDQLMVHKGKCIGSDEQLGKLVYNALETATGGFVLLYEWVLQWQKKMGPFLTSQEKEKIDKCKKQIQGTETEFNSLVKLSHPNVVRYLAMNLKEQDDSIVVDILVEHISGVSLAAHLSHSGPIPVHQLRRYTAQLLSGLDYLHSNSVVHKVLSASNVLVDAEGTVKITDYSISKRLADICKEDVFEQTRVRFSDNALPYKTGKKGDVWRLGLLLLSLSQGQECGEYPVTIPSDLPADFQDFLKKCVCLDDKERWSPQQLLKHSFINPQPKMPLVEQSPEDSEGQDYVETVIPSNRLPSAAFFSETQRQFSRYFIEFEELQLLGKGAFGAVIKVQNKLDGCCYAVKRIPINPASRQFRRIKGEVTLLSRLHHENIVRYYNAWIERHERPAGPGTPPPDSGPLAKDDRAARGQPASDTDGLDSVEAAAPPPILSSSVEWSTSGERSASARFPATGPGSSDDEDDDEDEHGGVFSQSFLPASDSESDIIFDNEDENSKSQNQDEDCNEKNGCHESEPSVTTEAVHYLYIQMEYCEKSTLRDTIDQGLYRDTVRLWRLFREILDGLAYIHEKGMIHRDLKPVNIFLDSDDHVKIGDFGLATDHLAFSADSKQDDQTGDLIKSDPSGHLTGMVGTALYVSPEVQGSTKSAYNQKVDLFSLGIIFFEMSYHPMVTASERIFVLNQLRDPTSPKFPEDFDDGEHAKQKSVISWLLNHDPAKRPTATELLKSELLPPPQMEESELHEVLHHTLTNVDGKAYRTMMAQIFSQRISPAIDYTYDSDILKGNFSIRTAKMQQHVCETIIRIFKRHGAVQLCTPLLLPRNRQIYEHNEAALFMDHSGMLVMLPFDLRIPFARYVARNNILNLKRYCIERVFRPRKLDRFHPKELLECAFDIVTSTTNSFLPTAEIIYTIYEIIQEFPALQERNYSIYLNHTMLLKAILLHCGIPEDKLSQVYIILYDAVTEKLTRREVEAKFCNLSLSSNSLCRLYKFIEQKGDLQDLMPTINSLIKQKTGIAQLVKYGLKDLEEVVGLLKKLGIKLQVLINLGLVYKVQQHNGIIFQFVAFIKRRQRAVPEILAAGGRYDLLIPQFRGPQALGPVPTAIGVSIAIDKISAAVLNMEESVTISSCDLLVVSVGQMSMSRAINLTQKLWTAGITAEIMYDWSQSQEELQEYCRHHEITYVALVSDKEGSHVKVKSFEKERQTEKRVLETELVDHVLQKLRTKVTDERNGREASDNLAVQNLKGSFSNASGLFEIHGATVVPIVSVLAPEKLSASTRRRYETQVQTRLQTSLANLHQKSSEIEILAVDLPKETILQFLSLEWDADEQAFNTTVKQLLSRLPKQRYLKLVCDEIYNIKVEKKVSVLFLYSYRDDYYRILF
row,IC50 [nM],Compound
1,10 to 100,"Cc1ccc(S(=O)(=O)Nc2cccc3c2CN(c2cccc4c(-c5nc(Nc6cc(C)n(C)n6)ncc5C)c[nH]c24)C3=O)cc1 [Example 343, N-(2-(3-(2-((1,5-dimethyl-1H-pyrazol-3-yl)amino)-5-methylpyrimidin-4-yl)-1H-indol-7-yl)-1-oxoisoindolin-4-yl)-4-methylbenzenesulfonamide]"
2,< 10,"Cc1cnc(Nc2cc(C)n(C)n2)nc1-c1c[nH]c2c(N3Cc4c(NS(=O)(=O)C(C)C)cccc4C3=O)cccc12 [Example 344, N-(2-(3-(2-((1,5-dimethyl-1H-pyrazol-3-yl)amino)-5-methylpyrimidin-4-yl)-1H-indol-7-yl)-1-oxoisoindolin-4-yl)propane-2-sulfonamide]"
3,10 to 100,"Cc1cc(S(=O)(=O)Nc2cccc3c2CN(c2cccc4c(-c5nc(Nc6cc(C)n(C)n6)ncc5C)c[nH]c24)C3=O)ccc1F [Example 345, N-(2-(3-(2-((1,5-dimethyl-1H-pyrazol-3-yl)amino)-5-methylpyrimidin-4-yl)-1H-indol-7-yl)-1-oxoisoindolin-4-yl)-4-fluoro-3-methylbenzenesulfonamide]"
4,100 to 1000,"Cc1cnc(Nc2cc(C)n(C)n2)nc1-c1c[nH]c2c(N3Cc4cccc(Nc5ccccc5)c4C3=O)cccc12 [Example 346, 2-(3-(2-((1,5-dimethyl-1H-pyrazol-3-yl)amino)-5-methylpyrimidin-4-yl)-1H-indol-7-yl)-7-(phenylamino)isoindolin-1-one]"
5,10 to 100,"Cc1cnc(Nc2cc(C)n(C)n2)nc1-c1c[nH]c2c(N3Cc4cccc(N5CCOCC5)c4C3=O)cccc12 [Example 347, 2-(3-(2-((1,5-dimethyl-1H-pyrazol-3-yl)amino)-5-methylpyrimidin-4-yl)-1H-indol-7-yl)-7-morpholinoisoindolin-1-one]"
6,10 to 100,"Cc1cnc(Nc2cc(C)n(C)n2)nc1-c1c[nH]c2c(N3Cc4cccc(N5CCN(C)CC5)c4C3=O)cccc12 [Example 348, 2-(3-(2-((1,5-dimethyl-1H-pyrazol-3-yl)amino)-5-methylpyrimidin-4-yl)-1H-indol-7-yl)-7-(4-methylpiperazin-1-yl)isoindolin-1-one]"
7,10 to 100,"Cc1cnc(Nc2cc(C)n(C)n2)nc1-c1c[nH]c2c(N3Cc4cccc(N(C)C)c4C3=O)cccc12 [Example 349, 2-(3-(2-((1,5-dimethyl-1H-pyrazol-3-yl)amino)-5-methylpyrimidin-4-yl)-1H-indol-7-yl)-7-(dimethylamino)isoindolin-1-one]"
8,100 to 1000,"Cc1cnc(Nc2cc(C)n(C)n2)nc1-c1c[nH]c2c(N3Cc4cccc(NCc5ccccc5)c4C3=O)cccc12 [Example 350, 7-(benzylamino)-2-(3-(2-((1,5-dimethyl-1H-pyrazol-3-yl)amino)-5-methylpyrimidin-4-yl)-1H-indol-7-yl)isoindolin-1-one]"
9,100 to 1000,"Cc1cnc(Nc2cc(C)n(C)n2)nc1-c1c[nH]c2c(N3Cc4cccc(NCC5CC5)c4C3=O)cccc12 [Example 351, 7-((cyclopropylmethyl)amino)-2-(3-(2-((1,5-dimethyl-1H-pyrazol-3-yl)amino)-5-methylpyrimidin-4-yl)-1H-indol-7-yl)isoindolin-1-one]"
10,< 10,"Cc1cnc(Nc2cc(C)n(C)n2)nc1-c1c[nH]c2c(N3Cc4c(cccc4N4CCOCC4)C3=O)cccc12 [Example 352, 2-(3-(2-((1,5-dimethyl-1H-pyrazol-3-yl)amino)-5-methylpyrimidin-4-yl)-1H-indol-7-yl)-4-morpholinoisoindolin-1-one]"
11,10 to 100,"Cc1cnc(Nc2cc(C)n(C)n2)nc1-c1c[nH]c2c(N3Cc4c(NCC5CC5)cccc4C3=O)cccc12 [Example 353, 4-((cyclopropylmethyl)amino)-2-(3-(2-((1,5-dimethyl-1H-pyrazol-3-yl)amino)-5-methylpyrimidin-4-yl)-1H-indol-7-yl)isoindolin-1-one]"
12,10 to 100,"Cc1cnc(Nc2cc(C)n(C)n2)nc1-c1c[nH]c2c(N3Cc4c(NCc5ccccc5)cccc4C3=O)cccc12 [Example 354, 4-(benzylamino)-2-(3-(2-((1,5-dimethyl-1H-pyrazol-3-yl)amino)-5-methylpyrimidin-4-yl)-1H-indol-7-yl)isoindolin-1-one]"
13,> 1000,Cc1cnc(Nc2cc(C)n(C)n2)nc1-c1c[nH]c2c(N3Cc4ccc(C#Cc5ccccc5)cc4C3=O)cccc12 [Example 355]
14,100 to 1000,"Cc1cnc(Nc2cc(C)n(C)n2)nc1-c1c[nH]c2c(N3Cc4c(C#Cc5ccccc5)cccc4C3=O)cccc12 [Example 356, 2-(3-(2-((1,5-dimethyl-1H-pyrazol-3-yl)amino)-5-methylpyrimidin-4-yl)-1H-indol-7-yl)-4-(phenylethynyl)isoindolin-1-one]"
15,10 to 100,"Cc1cnc(Nc2cc(C)n(C)n2)nc1-c1c[nH]c2c(N3Cc4c(C#Cc5ccc(N)cc5)cccc4C3=O)cccc12 [Example 357, 4-((4-aminophenyl)ethynyl)-2-(3-(2-((1,5-dimethyl-1H-pyrazol-3-yl)amino)-5-methylpyrimidin-4-yl)-1H-indol-7-yl)isoindolin-1-one]"
16,< 10,"Cc1cnc(Nc2cc(C)n(C)n2)nc1-c1c[nH]c2c(N3Cc4c(/C=C/C(N)=O)cccc4C3=O)cccc12 [Example 358, (E)-3-(2-(3-(2-((1,5-dimethyl-1H-pyrazol-3-yl)amino)-5-methylpyrimidin-4-yl)-1H-indol-7-yl)-1-oxoisoindolin-4-yl)acrylamide]"
17,10 to 100,"Cc1cnc(Nc2cc(C)n(C)n2)nc1-c1c[nH]c2c(N3Cc4c(/C=C/C(=O)N(C)C)ccc(F)c4C3=O)cccc12 [Example 359, (E)-3-(2-(3-(2-((1,5-dimethyl-1H-pyrazol-3-yl)amino)-5-methylpyrimidin-4-yl)-1H-indol-7-yl)-7-fluoro-1-oxoisoindolin-4-yl)-N,N-dimethylacrylamide]"
18,< 10,"Cc1cnc(Nc2cc(C)n(C)n2)nc1-c1c[nH]c2c(N3Cc4c(/C=C/C(=O)N(C)C)cccc4C3=O)cccc12 [Example 360, (E)-3-(2-(3-(2-((1,5-dimethyl-1H-pyrazol-3-yl)amino)-5-methylpyrimidin-4-yl)-1H-indol-7-yl)-1-oxoisoindolin-4-yl)-N,N-dimethylacrylamide]"
19,< 10,"C/C(=C\c1cccc2c1CN(c1cccc3c(-c4nc(Nc5cc(C)n(C)n5)ncc4C)c[nH]c13)C2=O)C(N)=O [Example 361, (E)-3-(2-(3-(2-((1,5-dimethyl-1H-pyrazol-3-yl)amino)-5-methylpyrimidin-4-yl)-1H-indol-7-yl)-1-oxoisoindolin-4-yl)-2-methylacrylamide]"
20,< 10,"CC(=O)/C=C/c1cccc2c1CN(c1cccc3c(-c4nc(Nc5cc(C)n(C)n5)ncc4C)c[nH]c13)C2=O [Example 362, (E)-2-(3-(2-((1,5-dimethyl-1H-pyrazol-3-yl)amino)-5-methylpyrimidin-4-yl)-1H-indol-7-yl)-4-(3-oxobut-1-en-1-yl)isoindolin-1-one]"
21,< 10,"CNC(=O)/C=C/c1cccc2c1CN(c1cccc3c(-c4nc(Nc5cc(C)n(C)n5)ncc4C)c[nH]c13)C2=O [Example 363, (E)-3-(2-(3-(2-((1,5-dimethyl-1H-pyrazol-3-yl)amino)-5-methylpyrimidin-4-yl)-1H-indol-7-yl)-1-oxoisoindolin-4-yl)-N-methylacrylamide]"
